Reference: ChEMBL document CHEMBL3352679, “Structure and evaluation of antibacterial and antitubercular properties of new basic and heterocyclic 3-formylrifamycin SV derivatives obtained via 'click chemistry' approach” (Eur J Med Chem, 2014)
In brackets after ≈: the same amount, converted by molar mass.

Key:
[1] = test system: Staphylococcus epidermidis; assay: Antibacterial activity against Staphylococcus epidermidis ATCC 49134 after 18 hrs by serial microdilution method; type: functional; conditions: ATCC 49134, 18 h
Escherichia coli = assay: Antibacterial activity against Escherichia coli ATCC 10538 after 18 hrs by serial microdilution method; type: functional; conditions: ATCC 10538, 18 h
Staphylococcus aureus [2] = assay: Antibacterial activity against Staphylococcus aureus ATCC 4163 after 18 hrs by serial microdilution method; type: functional; conditions: ATCC 4163, 18 h
Enterococcus faecalis = assay: Antibacterial activity against Enterococcus faecalis ATCC 19433 after 18 hrs by serial microdilution method; type: functional; conditions: ATCC 19433, 18 h
[3] = test system: Mycobacterium tuberculosis; assay: Antituberculosis activity against Mycobacterium tuberculosis H37Rv after 7 days by serial two fold dilution method; type: functional; conditions: 168 h
[4] = Solubility in water at pH 7 and 25 degC by UV-vis spectrophotometry; type: physicochemical
[5] = test system: Staphylococcus epidermidis; assay: Antibacterial activity against Staphylococcus epidermidis ATCC 12228 after 18 hrs by serial microdilution method; type: functional; conditions: ATCC 12228, 18 h
[6] = Octanol-water partition coefficient, log P of the compound; type: physicochemical
Staphylococcus aureus [7] = assay: Antibacterial activity against Staphylococcus aureus ATCC 25923 after 18 hrs by serial microdilution method; type: functional; conditions: ATCC 25923, 18 h
[8] = test system: Salmonella enterica subsp. enterica serovar Abony; assay: Antibacterial activity against Salmonella abony NCTC 6017 after 18 hrs by serial microdilution method; type: functional; conditions: NCTC 6017, 18 h
Staphylococcus aureus [9] = assay: Antibacterial activity against Staphylococcus aureus ATCC 6538 after 18 hrs by serial microdilution method; type: functional; conditions: ATCC 6538, 18 h
Candida albicans = assay: Antifungal activity against Candida albicans ATCC 10231 after 18 hrs by serial microdilution method; type: functional; conditions: ATCC 10231, 18 h
Trichophyton rubrum = assay: Antifungal activity against Trichophyton rubrum ATCC 28188 after 18 hrs by serial microdilution method; type: functional; conditions: ATCC 28188, 18 h

CO[C@H]1/C=C/O[C@@]2(C)Oc3c(C)c(O)c4c(O)c(c(CNCCCn5ccnc5)c(O)c4c3C2=O)NC(=O)/C(C)=C\C=C\[C@H](C)[C@H](O)[C@@H](C)[C@@H](O)[C@@H](C)[C@H](OC(C)=O)[C@@H]1C
MIC [1]: 0.25 µg/mL (≈ 0.299 µM)
MIC (Escherichia coli): > 1 µg/mL
MIC (Staphylococcus aureus [2]): 0.5 µg/mL (≈ 0.599 µM)
MIC (Enterococcus faecalis): > 1 µg/mL
MIC [3]: 1 µg/mL (≈ 1.2 µM)
solubility [4]: 330 µg/mL (≈ 395 µM)
MIC [5]: 0.5 µg/mL (≈ 0.599 µM)
logP [6]: 1.78
MIC (Staphylococcus aureus [7]): 1 µg/mL (≈ 1.2 µM)
MIC [8]: > 1 µg/mL
MIC (Staphylococcus aureus [9]): 0.5 µg/mL (≈ 0.599 µM)
MIC (Candida albicans): > 1 µg/mL
MIC (Trichophyton rubrum): > 1 µg/mL

CO[C@H]1/C=C/O[C@@]2(C)Oc3c(C)c(O)c4c(O)c(c(C=O)c(O)c4c3C2=O)NC(=O)/C(C)=C\C=C\[C@H](C)[C@H](O)[C@@H](C)[C@@H](O)[C@@H](C)[C@H](OC(C)=O)[C@@H]1C
MIC [1]: > 1 µg/mL
MIC (Escherichia coli): > 1 µg/mL
MIC (Staphylococcus aureus [2]): > 1 µg/mL
MIC (Enterococcus faecalis): > 1 µg/mL
MIC [3]: > 1 µg/mL
solubility [4]: 100 µg/mL (≈ 138 µM)
MIC [5]: > 1 µg/mL
logP [6]: 1.71
MIC (Staphylococcus aureus [7]): > 1 µg/mL
MIC [8]: > 1 µg/mL
MIC (Staphylococcus aureus [9]): > 1 µg/mL
MIC (Candida albicans): > 1 µg/mL
MIC (Trichophyton rubrum): > 1 µg/mL

CO[C@H]1/C=C/O[C@@]2(C)Oc3c(C)c(O)c4c(O)c5c(c(O)c4c3C2=O)CN(Cc2cn(CN3C(=O)c4ccccc4C3=O)nn2)C(=N5)/C(C)=C\C=C\[C@H](C)[C@H](O)[C@@H](C)[C@@H](O)[C@@H](C)[C@H](OC(C)=O)[C@@H]1C
MIC [1]: > 1 µg/mL
MIC (Escherichia coli): > 1 µg/mL
MIC (Staphylococcus aureus [2]): 1 µg/mL (≈ 1.05 µM)
MIC (Enterococcus faecalis): > 1 µg/mL
MIC [3]: 0.5 µg/mL (≈ 0.527 µM)
solubility [4]: < 10 µg/mL
MIC [5]: > 1 µg/mL
logP [6]: 3.26
MIC (Staphylococcus aureus [7]): > 1 µg/mL
MIC [8]: > 1 µg/mL
MIC (Staphylococcus aureus [9]): > 1 µg/mL
MIC (Candida albicans): > 1 µg/mL
MIC (Trichophyton rubrum): > 1 µg/mL

CCCc1cn(CCN2Cc3c4c(O)c5c(O)c(C)c6c(c5c3O)C(=O)[C@@](C)(O/C=C/[C@H](OC)[C@@H](C)[C@@H](OC(C)=O)[C@H](C)[C@H](O)[C@H](C)[C@@H](O)[C@@H](C)/C=C/C=C(/C)C2=N4)O6)nn1
MIC [1]: > 1 µg/mL
MIC (Escherichia coli): > 1 µg/mL
MIC (Staphylococcus aureus [2]): 1 µg/mL (≈ 1.18 µM)
MIC (Enterococcus faecalis): > 1 µg/mL
MIC [3]: 1 µg/mL (≈ 1.18 µM)
solubility [4]: < 10 µg/mL
MIC [5]: > 1 µg/mL
logP [6]: 3.13
MIC (Staphylococcus aureus [7]): > 1 µg/mL
MIC [8]: > 1 µg/mL
MIC (Staphylococcus aureus [9]): > 1 µg/mL
MIC (Candida albicans): > 1 µg/mL
MIC (Trichophyton rubrum): > 1 µg/mL

CCCCCc1cn(CCCNCc2c3c(O)c4c(O)c(C)c5c(c4c2O)C(=O)[C@@](C)(O/C=C/[C@H](OC)[C@@H](C)[C@@H](OC(C)=O)[C@H](C)[C@H](O)[C@H](C)[C@@H](O)[C@@H](C)/C=C/C=C(/C)C(=O)N3)O5)nn1
MIC [1]: 0.5 µg/mL (≈ 0.552 µM)
MIC (Escherichia coli): > 1 µg/mL
MIC (Staphylococcus aureus [2]): 1 µg/mL (≈ 1.1 µM)
MIC (Enterococcus faecalis): > 1 µg/mL
MIC [3]: 0.5 µg/mL (≈ 0.552 µM)
solubility [4]: < 10 µg/mL
MIC [5]: 0.5 µg/mL (≈ 0.552 µM)
logP [6]: 3.42
MIC (Staphylococcus aureus [7]): > 1 µg/mL
MIC [8]: > 1 µg/mL
MIC (Staphylococcus aureus [9]): 1 µg/mL (≈ 1.1 µM)
MIC (Candida albicans): > 1 µg/mL
MIC (Trichophyton rubrum): > 1 µg/mL

CO[C@H]1/C=C/O[C@@]2(C)Oc3c(C)c(O)c4c(O)c(c(CNCCCN5CCN(CCCNCc6c7c(O)c8c(O)c(C)c9c(c8c6O)C(=O)[C@@](C)(O/C=C/[C@H](OC)[C@@H](C)[C@@H](OC(C)=O)[C@H](C)[C@H](O)[C@H](C)[C@@H](O)[C@@H](C)/C=C/C=C(/C)C(=O)N7)O9)CC5)c(O)c4c3C2=O)NC(=O)/C(C)=C\C=C\[C@H](C)[C@H](O)[C@@H](C)[C@@H](O)[C@@H](C)[C@H](OC(C)=O)[C@@H]1C
MIC [1]: > 1 µg/mL
MIC (Escherichia coli): > 1 µg/mL
MIC (Staphylococcus aureus [2]): > 1 µg/mL
MIC (Enterococcus faecalis): > 1 µg/mL
MIC [3]: > 1 µg/mL
solubility [4]: < 10 µg/mL
MIC [5]: > 1 µg/mL
logP [6]: 3.83
MIC (Staphylococcus aureus [7]): > 1 µg/mL
MIC [8]: > 1 µg/mL
MIC (Staphylococcus aureus [9]): > 1 µg/mL
MIC (Candida albicans): > 1 µg/mL
MIC (Trichophyton rubrum): > 1 µg/mL

CO[C@H]1/C=C/O[C@@]2(C)Oc3c(C)c(O)c4c(O)c(c(CNCCN(C)C)c(O)c4c3C2=O)NC(=O)/C(C)=C\C=C\[C@H](C)[C@H](O)[C@@H](C)[C@@H](O)[C@@H](C)[C@H](OC(C)=O)[C@@H]1C
MIC [1]: 0.5 µg/mL (≈ 0.627 µM)
MIC (Escherichia coli): > 1 µg/mL
MIC (Staphylococcus aureus [2]): 1 µg/mL (≈ 1.25 µM)
MIC (Enterococcus faecalis): > 1 µg/mL
MIC [3]: > 1 µg/mL
solubility [4]: 320 µg/mL (≈ 401 µM)
MIC [5]: 0.5 µg/mL (≈ 0.627 µM)
logP [6]: 1.48
MIC (Staphylococcus aureus [7]): > 1 µg/mL
MIC [8]: > 1 µg/mL
MIC (Staphylococcus aureus [9]): 1 µg/mL (≈ 1.25 µM)
MIC (Candida albicans): > 1 µg/mL
MIC (Trichophyton rubrum): > 1 µg/mL

CO[C@H]1/C=C/O[C@@]2(C)Oc3c(C)c(O)c4c(O)c(c(CNC5CCN(Cc6ccccc6)CC5)c(O)c4c3C2=O)NC(=O)/C(C)=C\C=C\[C@H](C)[C@H](O)[C@@H](C)[C@@H](O)[C@@H](C)[C@H](OC(C)=O)[C@@H]1C
MIC [1]: 0.25 µg/mL (≈ 0.278 µM)
MIC (Escherichia coli): > 1 µg/mL
MIC (Staphylococcus aureus [2]): 0.25 µg/mL (≈ 0.278 µM)
MIC (Enterococcus faecalis): > 1 µg/mL
MIC [3]: 0.005 µg/mL (≈ 0.00556 µM)
solubility [4]: < 10 µg/mL
MIC [5]: 0.25 µg/mL (≈ 0.278 µM)
logP [6]: 3.25
MIC (Staphylococcus aureus [7]): 0.25 µg/mL (≈ 0.278 µM)
MIC [8]: > 1 µg/mL
MIC (Staphylococcus aureus [9]): 0.25 µg/mL (≈ 0.278 µM)
MIC (Candida albicans): > 1 µg/mL
MIC (Trichophyton rubrum): > 1 µg/mL

CCCc1cn(CCNCc2c3c(O)c4c(O)c(C)c5c(c4c2O)C(=O)[C@@](C)(O/C=C/[C@H](OC)[C@@H](C)[C@@H](OC(C)=O)[C@H](C)[C@H](O)[C@H](C)[C@@H](O)[C@@H](C)/C=C/C=C(/C)C(=O)N3)O5)nn1
MIC [1]: 0.5 µg/mL (≈ 0.579 µM)
MIC (Escherichia coli): > 1 µg/mL
MIC (Staphylococcus aureus [2]): 1 µg/mL (≈ 1.16 µM)
MIC (Enterococcus faecalis): > 1 µg/mL
MIC [3]: 1 µg/mL (≈ 1.16 µM)
solubility [4]: < 10 µg/mL
MIC [5]: 0.5 µg/mL (≈ 0.579 µM)
logP [6]: 2.14
MIC (Staphylococcus aureus [7]): > 1 µg/mL
MIC [8]: > 1 µg/mL
MIC (Staphylococcus aureus [9]): 1 µg/mL (≈ 1.16 µM)
MIC (Candida albicans): > 1 µg/mL
MIC (Trichophyton rubrum): > 1 µg/mL

CO[C@H]1/C=C/O[C@@]2(C)Oc3c(C)c(O)c4c(O)c(c(/C=N/N5CCN(C)CC5)c(O)c4c3C2=O)NC(=O)/C(C)=C\C=C\[C@H](C)[C@H](O)[C@@H](C)[C@@H](O)[C@@H](C)[C@H](OC(C)=O)[C@@H]1C [RIFAMPIN]
MIC [1]: 0.004 µg/mL (≈ 0.00486 µM)
MIC (Escherichia coli): > 1 µg/mL
MIC (Staphylococcus aureus [2]): 0.008 µg/mL (≈ 0.00972 µM)
MIC (Enterococcus faecalis): 1 µg/mL (≈ 1.22 µM)
MIC [3]: 0.005 µg/mL (≈ 0.00608 µM)
MIC [5]: 0.004 µg/mL (≈ 0.00486 µM)
logP [6]: 1.66
MIC (Staphylococcus aureus [7]): 0.016 µg/mL (≈ 0.0194 µM)
MIC [8]: > 1 µg/mL
MIC (Staphylococcus aureus [9]): 0.008 µg/mL (≈ 0.00972 µM)
MIC (Candida albicans): > 1 µg/mL
MIC (Trichophyton rubrum): > 1 µg/mL

CO[C@H]1/C=C\O[C@@]2(C)Oc3c(C)c(O)c4c(O)c(c(CNC5CCN(Cc6ccccc6)CC5)c(O)c4c3C2=O)NC(=O)/C(C)=C\C=C/[C@H](C)[C@H](O)[C@@H](C)[C@@H](O)[C@@H](C)[C@H](OC(C)=O)[C@@H]1C
MIC [1]: 0.03 µg/mL (≈ 0.0333 µM)
MIC (Staphylococcus aureus [2]): 0.125 µg/mL (≈ 0.139 µM)
MIC [3]: 0.005 µg/mL (≈ 0.00556 µM)
solubility [4]: 150 µg/mL (≈ 167 µM)
MIC [5]: 0.06 µg/mL (≈ 0.0667 µM)
logP [6]: 2.05
MIC (Staphylococcus aureus [7]): 0.25 µg/mL (≈ 0.278 µM)
MIC (Staphylococcus aureus [9]): 0.125 µg/mL (≈ 0.139 µM)

CO[C@H]1/C=C/O[C@@]2(C)Oc3c(C)c(O)c4c(O)c(c(CNCc5cn(CN6C(=O)c7ccccc7C6=O)nn5)c(O)c4c3C2=O)NC(=O)/C(C)=C\C=C\[C@H](C)[C@H](O)[C@@H](C)[C@@H](O)[C@@H](C)[C@H](OC(C)=O)[C@@H]1C
MIC [1]: 0.5 µg/mL (≈ 0.517 µM)
MIC (Escherichia coli): > 1 µg/mL
MIC (Staphylococcus aureus [2]): 1 µg/mL (≈ 1.03 µM)
MIC (Enterococcus faecalis): > 1 µg/mL
MIC [3]: 0.25 µg/mL (≈ 0.259 µM)
solubility [4]: < 10 µg/mL
MIC [5]: 0.5 µg/mL (≈ 0.517 µM)
logP [6]: 2.24
MIC (Staphylococcus aureus [7]): > 1 µg/mL
MIC [8]: > 1 µg/mL
MIC (Staphylococcus aureus [9]): 1 µg/mL (≈ 1.03 µM)
MIC (Candida albicans): > 1 µg/mL
MIC (Trichophyton rubrum): > 1 µg/mL
